In the case of `CCCN1CCN(Cc2ccc3c(c2)-c2[nH]nc(-c4ccsc4)c2C3)CC1`, the melting point is reported as 185 to 187 °C.
Compound `c1cnc(C2CC(c3cnccn3)CC(c3cnccn3)C2)cn1` (configuration not stated) has a melting point of 122 to 124 °C.
`CC=NN(C(=O)c1ccccc1)c1ccc(OC)c(F)c1` gave a melting point of 110 to 112 °C.
In the case of `CCc1nc2c(N)nc3ccccc3c2n1CCOCCNS(C)(=O)=O`, the melting point is reported as 169 to 171 °C.
Compound `Nc1ccc2nc(-c3ccccc3)oc2c1` has a melting point of 212 to 214 °C.
In the case of `COc1ccc2c(=O)[nH]c(-c3cc(C)c(OCCN4CCCC4)c(C)c3)nc2c1`, the melting point is reported as 218 to 220 °C.
`Cc1noc(NS(=O)(=O)c2ccccc2-c2ccc(-c3ncco3)cc2COCC(C)C)c1C` gave a melting point of 86 to 98 °C.
`Nc1ccc(S(=O)(=O)NCCc2ccccc2)cc1` gave a melting point of 114 °C.
`Cc1cc(-c2c(-c3ccc(OCC(F)(F)F)c(C(F)(F)F)c3)nc3cncn3c2C(F)(F)F)ccn1` gave a melting point of 219 °C.
`CC(Cn1cc(Sc2ccccc2)c2ccccc21)N(O)C(N)=O` (configuration not stated) gave a melting point of 73 to 76 °C.
`c1ccc(-c2ccc(-n3c4ccccc4c4c3ccc3c5ccccc5n(-c5ccc(-c6ccccc6)cc5)c34)cc2)cc1` gave a melting point of 315 °C.
Work on `c1ccc2c(c1)OCC(CCc1ncc[nH]1)O2` (configuration not stated) yielded a melting point of 159 to 160 °C.
For `CC1=C(C(=O)OCCO)C(c2ccccc2OCc2ccccc2)C([N+](=O)[O-])=C(C)N1` (configuration not stated), the melting point was 183 to 185 °C.
In the case of `CCc1nc2c(N)nc3ccccc3c2n1CCOCCNC(=O)NC1CCCCC1`, the melting point is reported as 198 to 200 °C.
For `O=C(O)C1CCN2c3ccccc3Cc3ccccc3C2C1` (configuration not stated), the melting point was 207 to 209 °C.
`CCCCCCCCCCNC(=O)c1cc(NCC(=O)OC)cc(C(=O)NCCCCCCCCCC)c1` gave a melting point of 108 to 109 °C.
In the case of `CCCOc1ccc(S(=O)(=O)NCc2ccncc2)cc1-c1nc2cc(N)c([N+](=O)[O-])cc2c(=O)[nH]1`, the melting point is reported as 157 to 160 °C.
`COc1cc(Cc2cnc(NCCCCc3ncc(Br)cc3C)[nH]c2=O)ccn1` showed a melting point of 120 to 121 °C.
`CC(C)c1cc(Oc2ccc(Cl)c(Cl)c2)nc(C(C)C)c1N=CN(C)C` gave a melting point of 102 to 103 °C.
For `N#Cc1ncccc1COc1cccc(F)c1`, the melting point was 52 to 53 °C.
Compound `CCC=CCn1c(=O)sc2c(=O)[nH]c(N)nc21` has a melting point of 240 to 243 °C.
`O=C(CC(=O)C1CC1)c1ccc(S(F)(F)(F)(F)F)cc1` gave a melting point of 70 to 72 °C.
For `O=C(O)c1cccc(OCc2ccc(Cl)cc2Cl)c1OCc1ccccc1`, the melting point was 151 to 153 °C.
Work on `N#Cc1ccc(OCC(=O)O)cc1F` yielded a melting point of 150 to 152 °C.
In the case of `Oc1ccc(-c2nc3ccccc3[nH]2)cc1`, the melting point is reported as 286 to 288 °C.
For `CC(C)(C)C(NC(=O)c1ccc(Cl)cc1)NC(=NC#N)Nc1cccc(C(F)(F)F)c1` (configuration not stated), the melting point was 184 to 186 °C.
For `Cc1cc(C(C)(C)C)c(O)c(C)c1COC(=O)CCCCC(=O)OCc1c(C)cc(C(C)(C)C)c(O)c1C`, the melting point was 156 to 158 °C.
`CCOc1ccc([N+](=O)[O-])c(NCCN2CCOCC2)c1` showed a melting point of 107 °C.
Compound `COc1ccc(CCc2nc(C(F)(F)F)c[nH]2)cc1` has a melting point of 146 to 148 °C.
With `O=C(O)c1ccc(Cn2nnc(-c3cccc(I)c3)n2)cc1` the melting point was 241 to 242 °C.
Compound `O=C(c1ccc(F)cc1)c1ccc(Br)nc1` has a melting point of 97 to 98 °C.
In the case of `CCc1ccc(-c2ccc3c(c2)C=C(C(=O)Nc2ccc(CN(C)C4CCOCC4)cc2)CCN3C)cc1`, the melting point is reported as 164 to 165 °C.
Compound `COc1cccc(-c2cc(Cl)c3cc(OC)ccc3n2)c1` has a melting point of 106 to 107 °C.
With `CN1CCC(OC2c3ccccc3CCn3c2nc(-c2ccccc2)c3I)CC1` (configuration not stated) the melting point was 153 °C.
In the case of `CCCCCCNC(=O)Oc1ccc2ncccc2c1`, the melting point is reported as 89 °C.
`CC(C)c1cccc(CO)c1NC(=O)CC1c2ccccc2Oc2ccccc21` gave a melting point of 155 to 156 °C.
Compound `CCN(CC)CCc1c[nH]c2ccc(N(CC)S(=O)(=O)c3ccc4ccccc4c3)cc12` has a melting point of 49 to 50 °C.
Compound `Cc1cc(C)c(Nc2nc(Nc3ccc(C#N)cc3)nc(Cl)c2Br)c(C)c1` has a melting point of 220 to 221 °C.
For `Cc1ccc(C)c(C(=O)NC(C)(C)C)c1`, the melting point was 80 to 82 °C.
Compound `CCOC(=O)c1ccc(N(CCOc2ccc(C#N)c3ccccc23)C(=O)C(F)(F)F)cc1` has a melting point of 150 to 151 °C.
Work on `COC(=O)C1(Nc2cc(Cl)c(Cl)cc2N)CCSC1` (configuration not stated) yielded a melting point of 162 °C.
For `O=C1C2C(C(=O)N1Cc1ccccc1)C2[N+](=O)[O-]` (configuration not stated), the melting point was 108 to 109 °C.
Work on `COCCn1nc2c(N)nc3ccccc3c2c1CCCCCl` yielded a melting point of 156 to 157 °C.
In the case of `COc1ccc(-c2nc(N3CCNCC3)c3c(C)c(C#N)sc3n2)cc1`, the melting point is reported as 210 to 212 °C.
Compound `NN=C1CCCCC1n1nc(-c2c(-c3ccccc3)nn3ccccc23)ccc1=O` (configuration not stated) has a melting point of 161 to 162 °C.
In the case of `CCOC(=O)[C@H](Cc1cccc(-c2ccc3ccccc3c2)c1)NC(=O)C(F)(F)F`, the melting point is reported as 89 to 91 °C.
`O=C(CCNCc1cc(F)cc(F)c1)Nc1cccc2c1C(=O)c1c(NC(=O)CCNCc3cc(F)cc(F)c3)cccc1C2=O` showed a melting point of 190 to 191 °C.
Compound `CCOC(=O)C=c1sc2n(c1=O)Cc1ccccc1N=2` has a melting point of 222 to 224 °C.
In the case of `OCCCCOc1ccc2cc(O)ccc2c1`, the melting point is reported as 148 to 150 °C.
Compound `CCOC(=O)NC(=S)CNc1ccc(C(=O)OC)c(S(=O)(=O)NC(=O)Nc2nc(OC)cc(OC)n2)c1` has a melting point of 144 to 145 °C.
With `COc1ccc(N(C(=O)CN2C(=O)C(COCc3ccccc3)C(=O)N(c3ccccc3)c3ccccc32)C(C)C)cc1` (configuration not stated) the melting point was 203 to 204 °C.
Work on `CSC1=Nc2ccc(C)cc2Cn2nnnc21` yielded a melting point of 157 to 160 °C.
For `O=C(O)CNC(=O)C(c1ccccc1)c1ccccc1`, the melting point was 113 to 115 °C.
For `NCCOCC(O)c1ccc2sccc2c1` (configuration not stated), the melting point was 87 to 90.5 °C.
`N#Cc1cc(F)c(-n2c(=O)cc(C(F)(F)F)[nH]c2=O)cc1Oc1ccc2ccccc2c1` gave a melting point of 92 °C.
Work on `CCOC(=O)N1CCC(c2cc3cc(OC)cc(Br)c3o2)CC1` yielded a melting point of 85 °C.
`COC(=O)c1oc2c(sc3ccccc32)c1O` gave a melting point of 124 to 125 °C.
For `O=C(O)c1c(-c2ccccc2)c(-c2ccccc2)nn1-c1ccccc1`, the melting point was 190 °C.
With `C=CCc1cc(C2=NNC(=O)CC2)ccc1OCC1CO1` (configuration not stated) the melting point was 92.5 to 95 °C.
`COC(=O)c1cc(N)c(C(F)(F)F)cc1NC(C)=O` showed a melting point of 143 to 152 °C.
`CCOC1(CCC(=O)O)c2cc(C)c(OC(C)=O)cc2Oc2cc(OC(C)=O)c(C)cc21` showed a melting point of 143 °C.
In the case of `COc1cc(CO)ccc1OCc1nc(-c2cccc(OS(C)(=O)=O)c2)oc1C`, the melting point is reported as 140 to 141 °C.
In the case of `Cc1ccccc1CCNC(=O)c1ccc(Br)cc1`, the melting point is reported as 102 to 103 °C.
For `O=C(Nc1ccc2nc(CN3CCOCC3)ccc2c1)c1ccc(-c2ccc(F)cc2)cc1`, the melting point was 211 to 212 °C.
Compound `CCCCC(C)c1cc(O)c2c(c1)OC(C)(C)CC2C1=CCN(Cc2ccc3ccccc3c2)CC1` (configuration not stated) has a melting point of 49 to 52 °C.
Compound `Cc1nc2c(OCCCc3ccccc3)cccn2c1CC#N` has a melting point of 143 to 145 °C.
`O=[N+]([O-])c1ccc(COP(=O)(COS(=O)(=O)C(F)(F)F)OCc2ccc([N+](=O)[O-])cc2)cc1` showed a melting point of 73 to 75 °C.
For `CN1C(=O)N(CC(COc2ccc(-c3ccc(OC(F)(F)F)cc3)cc2)N(O)C=O)C(=O)C1(C)C` (configuration not stated), the melting point was 114 to 118 °C.
Compound `CCSc1cc(C)nc(SCC)c1NC(=O)CCCCCCSc1nc2c(C)c(Cl)cc(C(C)C)c2o1` has a melting point of 117 to 120 °C.
`O=c1[nH]c(-c2ccc(CCN3CCN(c4cccc5cc(F)ccc45)CC3)cc2)cs1` gave a melting point of 228 to 270 °C.
Work on `Cn1cc(C(=O)NC2CCCNC(=O)C2)nn1` (configuration not stated) yielded a melting point of 259 to 260 °C.
For `CC1(N2C(=O)c3ccccc3S2(=O)=O)CCCNC1=O` (configuration not stated), the melting point was 211 to 215 °C.
With `CC(=O)Cc1cccc2c1C(=O)c1ccccc1C2=O` the melting point was 198 to 200 °C.
`OC[C@@H](OCc1ccccc1)[C@@H](O)[C@H](O)[C@@H](CO)OCc1ccccc1` gave a melting point of 116 to 117 °C.
With `CCc1cnc(N2CCN(C(=O)OC(C)(C)C)CC2)nc1` the melting point was 67 to 68 °C.
Work on `COc1cc(COc2cc(N)c(Cl)cc2C(=O)CCCCN2CCCCC2)cc(OC)c1` yielded a melting point of 128 to 130 °C.
`CCOC(=O)COc1ccc(NC(=O)NC(=O)c2ccc(C(=N)N)cc2)cc1` gave a melting point of 198 to 200 °C.
`COc1ccc([N+](=O)[O-])c(F)c1` showed a melting point of 47 to 49 °C.
For `CC(=O)C(=Cc1ccc(Cl)c(Cl)c1)C(C)=O`, the melting point was 73 °C.
In the case of `CCN(C(=O)C(C)(C)C)c1ccc(F)cc1F`, the melting point is reported as 69 to 71 °C.
With `CCCOC(=O)c1cc(=O)c2c(OCc3ccc(OCc4ccc5ccccc5n4)cc3)c(Cl)ccc2o1` the melting point was 173 to 174 °C.
For `CCNC(=NNc1c(Cl)cc(C(F)(F)F)cc1Cl)C1(C)CC1(Cl)Cl` (configuration not stated), the melting point was 79 °C.
With `O=C(O)CCc1cc(OCCCc2cn(-c3ccc(C(F)(F)F)cn3)nc2C2CCCCC2)nn1C1CCCCC1` the melting point was 190 to 191 °C.
`Cc1cc(-n2c(C)ccc2-c2ccc(S(C)(=O)=O)cc2)ccc1-c1ccoc1` showed a melting point of 69 to 75 °C.
In the case of `O=C(/C=C/c1ccc(S(=O)(=O)N2CCN(C(c3ccc(F)cc3)c3ccc(F)cc3)CC2)cc1)NO`, the melting point is reported as 125 to 126 °C.
`CCCN(CCC)[C@@H]1CCc2cc(CNC(=O)c3ccc(Cl)cc3)ccc2C1` showed a melting point of 141 to 142 °C.
For `COc1cc2c(-c3ccncc3)c(C(=O)O)oc(=O)c2cc1OC`, the melting point was > 250 °C.
In the case of `CC(C)(C)OC(=O)N1CCC[C@@H]1Cc1cccc2ccc(N)cc12`, the melting point is reported as 157 to 158 °C.
Work on `CCCCC1=NC2(CCCC2)C(=O)N1Cc1ccc(-c2ccccc2S(=O)(=O)Nc2noc(C)c2C)c(CN2CCCC2=O)c1` yielded a melting point of 97 to 103 °C.
`NS(=O)(=O)c1cc(C(=O)O)cc(NCCc2ccncc2)c1-c1ccccc1` showed a melting point of 216 to 218 °C.
`COc1cc(Nc2nc3c(s2)CCCC3c2ccccc2)ccc1-c1nc(C)no1` (configuration not stated) showed a melting point of 228 to 231 °C.
`COc1ccc2c(c1)C(C)(C)Oc1c-2ccc(O)c1C(C)=O` showed a melting point of 103 to 104 °C.
Compound `COc1ccc(C(=O)C=Cc2ccc(C#N)cc2)c(OC)c1OC` has a melting point of 132 to 133 °C.
Work on `CCOc1ccc(C2=NN(CCCCCCBr)C(=O)[C@H]3CCCC[C@@H]23)cc1OCC` (relative stereo) yielded a melting point of 47 to 51 °C.
`CC(C)(C)OC(=O)NCC(O)(CNCC(O)C(Cc1ccccc1)NC(=O)OC(C)(C)C)Cc1ccccc1` (configuration not stated) showed a melting point of 65 to 67 °C.
For `CCCCCCCCCCCCCCCCCC(=O)c1ccc(C2=NC(C)(C)CO2)cc1`, the melting point was 73 to 76 °C.
`NC(=O)NN=Cc1ccc(OCc2ccccc2F)cc1` gave a melting point of 211 to 212 °C.

Source: a melting point compilation (Tetko et al.; mined from patent text by program, amines drawn as free bases though some values may be those of a salt)
